Measured values reported in ChEMBL document CHEMBL1201862, “PubChem BioAssay data set” (2004).
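Interpolation was linear, between the two tested concentrations surrounding the appropriate level; five concentrations were tested over 48 hours in 96-well plates. GI50 marks 50% less growth.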 Activity calls are given as the source filed them. No stated cut-off is given here; in the data, active = GI50 up to about 1.1 µM and inactive = higher.

Columns and labels:
Test in all cases: inhibition of tumour cell growth, NCI panel, 48 h
A498 = tested on: A498
HCC 2998 = tested on: HCC 2998
HCT-15 = tested on: HCT-15
KM12 = tested on: KM12
MDA-N = tested on: MDA-N
Malme-3M = tested on: Malme-3M
NCI-H23 = tested on: NCI-H23
NCI/ADR-RES = tested on: NCI/ADR-RES
OVCAR-5 = tested on: OVCAR-5
RXF 393 = tested on: RXF 393
SK-MEL-28 = tested on: SK-MEL-28
SK-MEL-2 = tested on: SK-MEL-2
SK-MEL-5 = tested on: SK-MEL-5
SN12C = tested on: SN12C
SNB-19 = tested on: SNB-19
SW-620 = tested on: SW-620
U-251 = tested on: U-251
UACC-257 = tested on: UACC-257
UO-31 = tested on: UO-31
NCI-H226 = tested on: NCI-H226

Row | SMILES | GI50 (A498) | GI50 (HCC 2998) | GI50 (HCT-15) | GI50 (KM12) | GI50 (MDA-N) | GI50 (Malme-3M) | GI50 (NCI-H23) | GI50 (NCI/ADR-RES) | GI50 (OVCAR-5) | GI50 (RXF 393) | GI50 (SK-MEL-28) | GI50 (SK-MEL-2) | GI50 (SK-MEL-5) | GI50 (SN12C) | GI50 (SNB-19) | GI50 (SW-620) | GI50 (U-251) | GI50 (UACC-257) | GI50 (UO-31) | GI50 (NCI-H226)
1 | CCN1CCN(c2ccc(Nc3ccnc4ccc5c(nnn5C)c34)cc2)CC1 | 14.8 µM (inactive) | 1.58 µM (inactive) | 3.95 µM | 3.51 µM (inactive) | 3.52 µM (inactive) | 5.89 µM (inactive) | 11.6 µM (inactive) | 9.14 µM (inactive) | 9.16 µM (inactive) | 7.19 µM (inactive) | 11.1 µM (inactive) | 12.2 µM (inactive) | 11 µM (inactive) | 3.53 µM (inactive) | 3.15 µM (inactive) | 3.93 µM (inactive) | 5.69 µM (inactive) | 13.2 µM (inactive) | 10.2 µM (inactive) | 
2 | COc1ccc(-c2nc(SCC(=O)N/N=C/c3ccc(O)c(OC)c3)[nH]c2-c2ccc(OC)cc2)cc1 | 18.8 µM (inactive) | 17.7 µM (inactive) | 24.2 µM | 33.3 µM (inactive) | 22.1 µM (inactive) | 37.8 µM (inactive) | 21.9 µM (inactive) | 31.8 µM (inactive) | 27.8 µM (inactive) | 18.6 µM (inactive) | 28.4 µM (inactive) | 17.3 µM (inactive) | 17.7 µM (inactive) | 19.1 µM (inactive) | 41.1 µM (inactive) | 30.8 µM (inactive) | 19.7 µM (inactive) | 25.5 µM (inactive) | 34.7 µM (inactive) | 
3 | COc1ccc(C(=O)/C=C/c2ccncc2)cc1OC | 17.1 µM (inactive) |  | 15.4 µM |  | 13.1 µM (inactive) | 18.3 µM (inactive) | 10.7 µM (inactive) | 19.7 µM (inactive) | 14.3 µM (inactive) | 12.6 µM (inactive) | 17.3 µM (inactive) | 16.7 µM (inactive) | 16.4 µM (inactive) | 15.8 µM (inactive) | 18.5 µM (inactive) |  | 11.2 µM (inactive) | 12.9 µM (inactive) | 14.9 µM (inactive) | 15.5 µM (inactive)
4 | COC(=O)c1c2c(cc3c1CCC3)CCC2 | 28.6 µM (inactive) | 59.4 µM (inactive) | 57.8 µM | 65.3 µM (inactive) | 55.3 µM (inactive) | 48.2 µM (inactive) | 80.7 µM (inactive) | > 100 µM (inactive) | > 100 µM (inactive) |  | 53.6 µM (inactive) | 24.8 µM (inactive) | 15.9 µM (inactive) | > 100 µM (inactive) | > 100 µM (inactive) | > 100 µM (inactive) | 51.9 µM (inactive) | 48 µM (inactive) | 72.8 µM (inactive) | 54.7 µM (inactive)
5 | Cc1csc(-n2c(C)nc3cc(Cl)ccc3c2=O)n1 | > 100 µM (inactive) | > 100 µM (inactive) | 67.5 µM | > 100 µM (inactive) | > 100 µM (inactive) |  | 71.8 µM (inactive) | 86.3 µM (inactive) | > 100 µM (inactive) | > 100 µM (inactive) | > 100 µM (inactive) | > 100 µM (inactive) | 43.1 µM (inactive) | > 100 µM (inactive) | > 100 µM (inactive) | > 100 µM (inactive) | > 100 µM (inactive) | 91.6 µM (inactive) | 58.2 µM (inactive) | > 100 µM (inactive)
6 | Cc1cn(C2CC(/[N+]([O-])=N\Nc3ccc([N+](=O)[O-])cc3)C(CO)O2)c(=O)[nH]c1=O (stereo not drawn) | > 100 µM (inactive) | 40.7 µM (inactive) | > 100 µM | > 100 µM (inactive) | > 100 µM (inactive) | > 100 µM (inactive) | > 100 µM (inactive) | > 100 µM (inactive) | > 100 µM (inactive) | > 100 µM (inactive) | > 100 µM (inactive) |  |  | > 100 µM (inactive) | > 100 µM (inactive) | > 100 µM (inactive) | > 100 µM (inactive) | > 100 µM (inactive) | > 100 µM (inactive) | > 100 µM (inactive)
7 | COC(=O)Nc1nc2cc(S(=O)(=O)n3nnc4ccccc43)ccc2[nH]1 | 57 µM (inactive) |  | > 100 µM | > 100 µM (inactive) | > 100 µM (inactive) | 30.5 µM (inactive) | 41.7 µM (inactive) | > 100 µM (inactive) | > 100 µM (inactive) | 14.6 µM (inactive) | > 100 µM (inactive) | > 100 µM (inactive) | > 100 µM (inactive) | > 100 µM (inactive) | 29.9 µM (inactive) | > 100 µM (inactive) | 26.6 µM (inactive) | 5.61 µM (inactive) | > 100 µM (inactive) | 
8 | CCCCOC(=O)Nc1ccc(S(=O)(=O)Nc2ccccc2Cl)cc1 | 12.8 µM (inactive) | 14.1 µM (inactive) | 21.3 µM | 24 µM (inactive) | 17.6 µM (inactive) | 24.8 µM (inactive) | 25.6 µM (inactive) | 18.2 µM (inactive) | 25.8 µM (inactive) | 21.3 µM (inactive) | 19.6 µM (inactive) | 18.1 µM (inactive) | 12 µM (inactive) | 21.2 µM (inactive) | 22.6 µM (inactive) | 14.1 µM (inactive) | 17.5 µM (inactive) | 31.3 µM (inactive) | 25.6 µM (inactive) | 
